Source: the supplement of paper PMC11061612

Experiments:
Experiment in all cases: combination Emax (second highest fraction inhibited in the dose matrix, 72 h); higher = more inhibition; extreme values may be limits of the assay
[1] = test system: Caov-4 (Ovarian Carcinoma)
How it was run: (§1)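 After 24 hours at 37°C and 5% CO2 in 1536-well plates, cells in DMEM/F12 or RPMI plus 10% FBS received two-drug dose matrices for 72 hours. Viability came from CellTiter-Glo 2.0 luminescence and was scaled as inhibition, anchored at 0 by vehicle wells and at 1 by blank wells. Combination Emax is taken as the second-highest inhibition in the matrix, and Bliss excess as the observed combination effect less EA + EB − EA·EB, with EA and EB the single-agent effects.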

[2] = test system: EFM-19 (Breast Carcinoma)
How it was run: as §1

[3] = test system: EoL-1-cell (Acute Myeloid Leukemia)
How it was run: as §1

[4] = test system: MLMA (Other Blood Carcinomas)
How it was run: as §1

[5] = test system: BT-549 (Breast Carcinoma)
How it was run: as §1

YH-13 (Glioblastoma) = test system: YH-13 (Glioblastoma)
How it was run: as §1

[6] = test system: NCI-H727 (Other Solid Carcinomas)
How it was run: as §1

[7] = test system: Ca9-22 (Head and Neck Carcinoma)
How it was run: as §1

TK10 (Kidney Carcinoma) = test system: TK10 (Kidney Carcinoma)
How it was run: as §1

[8] = test system: SW13 (Other Solid Carcinomas)
How it was run: as §1

UACC-62 (Melanoma) = test system: UACC-62 (Melanoma)
How it was run: as §1

TGW (Neuroblastoma) = test system: TGW (Neuroblastoma)
How it was run: as §1

[9] = test system: LU-65 (Non-Small Cell Lung Carcinoma)
How it was run: as §1

[10] = test system: NCI-H358 (Lung Adenocarcinoma)
How it was run: as §1

[11] = test system: KARPAS-299 (T-Cell Non-Hodgkin's Lymphoma)
How it was run: as §1

D-263MG (Glioblastoma) = test system: D-263MG (Glioblastoma)
How it was run: as §1

NB69 (Neuroblastoma) = test system: NB69 (Neuroblastoma)
How it was run: as §1

[12] = test system: Hs-766T (Pancreatic Carcinoma)
How it was run: as §1

[13] = test system: AMO-1 (Plasma Cell Myeloma)
How it was run: as §1

[14] = test system: MIA-PaCa-2 (Pancreatic Carcinoma)
How it was run: as §1

SMILES	combination Emax [1]	combination Emax [2]	combination Emax [3]	combination Emax [4]	combination Emax [5]	combination Emax (YH-13 (Glioblastoma))	combination Emax [6]	combination Emax [7]	combination Emax (TK10 (Kidney Carcinoma))	combination Emax [8]	combination Emax (UACC-62 (Melanoma))	combination Emax (TGW (Neuroblastoma))	combination Emax [9]	combination Emax [10]	combination Emax [11]	combination Emax (D-263MG (Glioblastoma))	combination Emax (NB69 (Neuroblastoma))	combination Emax [12]	combination Emax [13]	combination Emax [14]
C[C@@H](c1ccc2nccn2c1)n1nnc2ncc(-c3cnn(C)c3)nc21 [Savolitinib] + Cc1c2c(nn1C)CSCc1cc(n(C)n1)CSc1cc(c3ccccc3c1)OCCCc1c(C(=O)O)n(C)c3c-2c(Cl)ccc13 [AZD5991] (first compound max 1 µM, 7x7, partner max 1 µM)	0.421	0.223	1	0.33	0.225	0.276	0.203	0.143	0.116	0.735	0.545	0.214	0.179	0.108	0.936	0.366	0.74	0.233	1	0.204
CN(CCO)CC[C@H](CSc1ccccc1)Nc1ccc(S(=O)(=O)NC(=O)c2ccc(N3CCC([C@@H](O)c4ccccc4-c4ccc(Cl)cc4)CC3)cc2)cc1S(=O)(=O)C(F)(F)F [AZD4320] + C[C@@H]1COCCN1C2=NC(=NC(=C2)C3(CC3)[S@](=N)(=O)C)C4=C5C=CNC5=NC=C4 [AZD6738] (first compound max 1 µM, 7x7, partner max 10 µM)	0.874	0.716	1	0.83	0.552	0.568	0.695	0.969	0.866	0.405	0.7	0.949	0.781	0.705	0.955	0.758	0.959	0.6	0.826	0.632
C[C@@H](c1ccc2nccn2c1)n1nnc2ncc(-c3cnn(C)c3)nc21 [Savolitinib] + CC1(C)CCC(CN2CCN(c3ccc(C(=O)NS(=O)(=O)c4ccc(NCC5CCOCC5)c([N+](=O)[O-])c4)c(Oc4cnc5[nH]ccc5c4)c3)CC2)=C(c2ccc(Cl)cc2)C1 [Venetoclax] (first compound max 1 µM, 7x7, partner max 1 µM)	0.12	0.182	0.86	0.157	0.113	0.237	0.157	0.193	0.106	0.139	0.24	0.313	0.129	0.128	0.169	0.158	0.372	0.252	0.326	0.164
Cc1cc2ncnn2cc1Nc1ncc2c(n1)n(C1CCOCC1)c(=O)n2C [AZD7648] + O=C(c1cc(Cc2n[nH]c(=O)c3ccccc23)ccc1F)N1CCN(C(=O)C2CC2)CC1 [Olaparib] (first compound max 10 µM, 7x7, partner max 10 µM)	0.199	0.401	0.42	0.279	0.18	0.16	0.218	0.113	0.234	0.203	0.253	0.344	0.312	0.279	0.151	0.094	0.541	0.353	0.196	0.22
N#Cc1cnc(Nc2cc(NC[C@H]3CNCCO3)c(C(F)(F)F)cn2)cn1 [SRA737] + Nc1ccn([C@@H]2O[C@H](CO)[C@@H](O)C2(F)F)c(=O)n1 [Gemcitabine] (first compound max 10 µM, 7x7, partner max 0.3 µM)	0.856	0.684	1	0.818	0.715	0.813	0.436	0.867	0.549	0.944	0.788	0.861	0.862	0.665	0.998	0.734	0.983	0.477	0.974	0.951
Cc1cc2ncnn2cc1Nc1ncc2c(n1)n(C1CCOCC1)c(=O)n2C [AZD7648] + C=CCn1c(=O)c2cnc(Nc3ccc(N4CCN(C)CC4)cc3)nc2n1-c1cccc(C(C)(C)O)n1 [AZD1775] (first compound max 10 µM, partner max 1 µM)	0.922	0.615	0.978	0.89	0.679	0.449	0.351	0.734	0.63	0.329	0.536	0.732	0.692	0.524	0.927	0.392	0.887	0.555	0.755	0.558
Cc1cc2ncnn2cc1Nc1ncc2c(n1)n(C1CCOCC1)c(=O)n2C [AZD7648] + CN(C)CCCOc1ccc(-c2ccc3ncc4c(c3c2)n(C2CCOCC2)c(=O)n4C)cn1 [AZD0156] (first compound max 10 µM, 7x7, partner max 1 µM)	0.344	0.403	0.238	0.671	0.254	0.345	0.294	0.226	0.442	0.39	0.302	0.351	0.334	0.349	0.237	0.25	0.565	0.525	0.431	0.401
Cc1nc(Nc2ncc(C(=O)Nc3c(C)cccc3Cl)s2)cc(N2CCN(CCO)CC2)n1 [Dasatinib] + CC(=O)Nc1cccc(-n2c(=O)n(C3CC3)c(=O)c3c(Nc4ccc(I)cc4F)n(C)c(=O)c(C)c32)c1 [Trametinib] (first compound max 2 µM, 7x7, partner max 1 µM)	0.743	0.199	1	0.675	0.436	0.784	0.701	0.878	0.766	0.716	0.888	0.273	0.564	0.69	0.427	0.761	1	0.777	0.405	0.894
Cc1cc2ncnn2cc1Nc1ncc2c(n1)n(C1CCOCC1)c(=O)n2C [AZD7648] + CCN(CCO)CCCOc1ccc2c(Nc3cc(CC(=O)Nc4cccc(F)c4)[nH]n3)ncnc2c1 [AZD2811] (first compound max 10 µM, 7x7, partner max 1 µM)	0.445	0.536	0.984	0.351	0.361	0.482	0.287	0.3	0.42	0.506	0.312	0.351	0.37	0.326	0.326	0.473	0.655	0.422	0.469	0.516
Cc1cc2ncnn2cc1Nc1ncc2c(n1)n(C1CCOCC1)c(=O)n2C [AZD7648] + COc1cc([C@@H]2c3cc4c(cc3[C@@H](O[C@@H]3O[C@@H]5CO[C@@H](C)O[C@H]5[C@H](O)[C@H]3O)[C@H]3COC(=O)[C@H]23)OCO4)cc(OC)c1O [Etoposide] (first compound max 10 µM, 7x7, partner max 10 µM)	0.744	0.615	1	0.816	0.736	0.641	0.269	0.869	0.592	0.86	0.642	0.522	0.897	0.628	0.976	0.618	0.946	0.253	0.942	0.945
N#Cc1cnc(Nc2cc(NC[C@H]3CNCCO3)c(C(F)(F)F)cn2)cn1 [SRA737] + C=CCn1c(=O)c2cnc(Nc3ccc(N4CCN(C)CC4)cc3)nc2n1-c1cccc(C(C)(C)O)n1 [AZD1775] (first compound max 10 µM, partner max 1 µM)	0.854	0.413	1	0.826	0.804	0.812	0.667	0.957	0.653	0.218	0.304	0.922	0.887	0.763	0.966	0.575	0.969	0.512	0.967	0.911
CN(CCO)CC[C@H](CSc1ccccc1)Nc1ccc(S(=O)(=O)NC(=O)c2ccc(N3CCC([C@@H](O)c4ccccc4-c4ccc(Cl)cc4)CC3)cc2)cc1S(=O)(=O)C(F)(F)F [AZD4320] + C[C@@H](Nc1cc(F)cc(F)c1)c1cc(C(=O)N(C)C)cc2c(=O)cc(N3CCOCC3)oc12 [AZD8186] (first compound max 1 µM, 7x7, partner max 3 µM)	0.461	0.82	1	0.701	0.456	0.694	0.378	0.648	0.54	0.592	0.67	0.968	0.483	0.394	0.247	0.38	0.97	0.469	0.244	0.444
